The values below come from paper PMC7801110 (Journal of Enzyme Inhibition and Medicinal Chemistry, 2021).

Entries after “also recorded” stand apart in the source; their conditions may differ.

Series [1] deals with T1, IDE, His-Tag, rat, recombinant (Rattus norvegicus, UniProt P35559).
T1 construct: His-Tag; purchased Sigma Aldrich; host or cells: Spodoptera frugiperda
T1 sequence (P35559 1-1019): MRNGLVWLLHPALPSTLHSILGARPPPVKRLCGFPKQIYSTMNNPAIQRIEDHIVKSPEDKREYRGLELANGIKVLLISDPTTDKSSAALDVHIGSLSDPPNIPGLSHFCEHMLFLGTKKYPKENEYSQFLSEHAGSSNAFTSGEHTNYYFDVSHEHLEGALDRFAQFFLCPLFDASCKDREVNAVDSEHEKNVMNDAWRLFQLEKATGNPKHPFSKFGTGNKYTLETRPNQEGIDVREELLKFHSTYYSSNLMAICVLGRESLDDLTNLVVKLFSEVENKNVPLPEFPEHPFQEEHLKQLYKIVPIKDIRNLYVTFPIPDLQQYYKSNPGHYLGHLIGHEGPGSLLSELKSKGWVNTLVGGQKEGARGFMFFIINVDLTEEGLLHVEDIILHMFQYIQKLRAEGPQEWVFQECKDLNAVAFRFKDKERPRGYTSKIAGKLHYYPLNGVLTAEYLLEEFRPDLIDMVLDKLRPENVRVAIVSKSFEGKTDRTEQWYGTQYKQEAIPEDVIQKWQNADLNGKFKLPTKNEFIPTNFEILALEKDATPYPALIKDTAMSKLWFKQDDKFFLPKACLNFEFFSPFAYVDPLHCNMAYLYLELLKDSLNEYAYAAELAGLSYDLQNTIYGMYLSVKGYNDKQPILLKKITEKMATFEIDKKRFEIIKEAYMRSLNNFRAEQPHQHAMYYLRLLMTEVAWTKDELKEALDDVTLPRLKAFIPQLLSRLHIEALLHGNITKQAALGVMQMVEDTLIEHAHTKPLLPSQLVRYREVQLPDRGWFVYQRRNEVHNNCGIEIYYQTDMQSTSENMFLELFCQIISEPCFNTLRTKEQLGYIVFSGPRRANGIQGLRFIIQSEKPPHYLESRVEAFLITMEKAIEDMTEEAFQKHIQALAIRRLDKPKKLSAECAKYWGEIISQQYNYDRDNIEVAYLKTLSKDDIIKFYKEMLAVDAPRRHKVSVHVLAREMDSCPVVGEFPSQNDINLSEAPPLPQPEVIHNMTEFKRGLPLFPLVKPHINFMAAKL
The experiment in a line: HPLC-MS enzymatic assay: degradation of NPFF and NPAF by IDE. The series is classed as in vitro ADME. The conditions noted are these: PBS pH 7.4, 37 °C, LC-ESI/MS; for cleavage of the peptide by IDE: stability with named protease IDE (135 nM), peptide 20 μM, aliquots 0-180 min, stopped with 1% TFA, repeated three times. On the procedure: IDE, His-Tag, rat, recombinant, Spodoptera frugiperda, were purchased from Sigma Aldrich. […] Peptides were purified by the high-performance liquid chromatography (HPLC) and tested for their purity using ESI MS. Purity was above 95%. […] The liquid chromatography-electrospray ionisation mass spectrometry (LC-ESI/MS) experiments were carried out by using a LCQ Deca XP instrument (Thermo Electron Corporation, USA). All solutions were incubated in PBS (pH 7.4) at 37 °C. […] Samples were kept at 4 °C before HPLC-MS analysis. […] Separation of the generated fragments was carried out by the reversed-phase chromatography using a Jupiter® 5 µm C4 300 Å (LC Column 150 × 4.6 mm) column from Phenomenex at the flow rate of 250 μl/min. MS-MS experiments were used for final identification of the peptide fragments. All methodological details and a semiquantitative method were already described in our previous work, and the absolute intensities of the peaks were normalised to the total ion current[18]^,[24]^,[25]. The experiments were repeated three times to ensure reproducibility and estimate the error bars on the HPLC-MS results.

For series [2], the target named is T1, IDE, His-Tag, rat, recombinant. The experiment in a line: Insulin degradation by IDE in the presence of NPAF/NPFF (HPLC-MS). The series is classed as biochemical. The settings on record: PBS pH 7.4, 37 °C, LC-ESI/MS; for effect on insulin degradation by IDE after 3 h pre-incubation of the neuropeptide with IDE (NP fragments): NP 20 μM incubated 3 h with IDE 135 nM, then insulin 10 μM added, data not shown. On the procedure:
IDE, His-Tag, rat, recombinant, Spodoptera frugiperda, were purchased from Sigma Aldrich. NPAF, NPFF were manually synthesised by the solid-phase method using Fmoc chemistry. Peptides were purified by the high-performance liquid chromatography (HPLC) and tested for their purity using ESI MS. […] The liquid chromatography-electrospray ionisation mass spectrometry (LC-ESI/MS) experiments were carried out by using a LCQ Deca XP instrument (Thermo Electron Corporation, USA). All solutions were incubated in PBS (pH 7.4) at 37 °C. After incubations, sample aliquots at time 0; 10; 30; 45; 60 and 180 min were taken and a 10% solution of TFA was added to the aliquots in order to achieve a final TFA concentration of 1% in all the samples to stop the enzymatic reaction. Samples were kept at 4 °C before HPLC-MS analysis. […] Separation of the generated fragments was carried out by the reversed-phase chromatography using a Jupiter® 5 µm C4 300 Å (LC Column 150 × 4.6 mm) column from Phenomenex at the flow rate of 250 μl/min. MS-MS experiments were used for final identification of the peptide fragments. All methodological details and a semiquantitative method were already described in our previous work, and the absolute intensities of the peaks were normalised to the total ion current[18]^,[24]^,[25]. The experiments were repeated three times to ensure reproducibility and estimate the error bars on the HPLC-MS results.

The subject of series [3] is insulin-degrading enzyme (IDE), His-Tag, rat, recombinant. Kind of series: IDE (135 nM) in PBS (pH 7.4). The conditions noted are these: 37 °C, up to 180 min.

With “HAla-Gly-Glu-Gly-Leu-Ser-Ser-Pro-Phe-Trp-Ser-Leu-Ala-Ala-Pro-Gln-Arg-PheOH [NPAF, neuropeptide generated from the NPFF precursor (pro-NPFF(A)), manually synthesised by Fmoc solid-phase method]”, the “cleavage of the peptide by IDE” value in series [1] is recorded as “able to cleave”. Further, the “effect of the neuropeptide on insulin degradation by IDE (insulin molecular peak decrease)” value in series [2] (NP 20 μM co-incubated with insulin 10 μM and IDE 135 nM, performed three times) is on record as “activating effect”. Besides, the “effect on insulin degradation by IDE after 3 h pre-incubation of the neuropeptide with IDE (NP fragments)” value in series [2] is given as “no activation effect”. On to “HPhe-Leu-Phe-Gln-Pro-Gln-Arg-PheOH [NPFF, neuropeptide generated from the NPFF precursor (pro-NPFF(A)), manually synthesised by Fmoc solid-phase method]”, for which the “cleavage of the peptide by IDE” value in series [1] is on record as “able to cleave”. Besides, the “effect on insulin degradation by IDE after 3 h pre-incubation of the neuropeptide with IDE (NP fragments)” value in series [2] is reported as “no activation effect”. For the substance “HAla-Gly-Glu-Gly-Leu-Ser-Ser-Pro-Phe-Trp-Ser-Leu-Ala-Ala-Pro-GlnOH [cryptic peptide at 1617.8 m/z, cryptic peptide formed from NPAF by IDE, detected at m/z 1617.8]”, the “incubation time at which the relative intensity of the cryptic peptide reaches a maximum” value in series [1] (NPAF 20 μM with IDE 135 nM, intensities normalised to total ion current, abundance diminishes afterwards) is “about 30 min”.

For “HAla-Gly-Glu-Gly-Leu-Ser-Ser-Pro-Phe-Trp-Ser-Leu-Ala-Ala-Pro-Gln-Arg-PheOH”, in series [3], the cleaved bond result is “Gly-Glu; also recorded: Ser-Leu, major, 10 min; also recorded: Leu-Ala, major, 10 min; also recorded: Gln-Arg, major, 10 min”. Still for that read-out and setting: the value for HPhe-Leu-Phe-Gln-Pro-Gln-Arg-PheOH was “Gln-Arg, major, 10 min”.
